Assay results: paper PMC2229062 (The Journal of General Physiology, 1991)

System: GK (G protein coupled to the muscarinic K+ channel IK.ACh)
Test: inside-out patch clamp, inhibition of GTP-induced IK.ACh openings, Hill fit
Type: biochemical, Cavia porcellus
Conditions: no agonist; against 10 µM GTP; same; assumed competitive with GTP

In the case of Nc1nc2c(ncn2[C@@H]2O[C@H](COP(=O)(O)OP(=O)(O)O)[C@@H](O)[C@H]2O)c(=O)[nH]1 [GDP], the IC50 is reported as 510 nM.
